From US20030077768A1, “Use of xylene monooxygenase for the oxidation of substituted polycyclic aromatic compounds” (priority 2001, published 2003)

How the values were obtained:
Sphingomonas strain ASU1 = assay: Carbon source utilization (growth on S12 agar) by strain ASU1; format: cell-based; conditions: compound as sole source of carbon and energy, 28° C., listed as 2,6-DMN
Procedure: S12 agar was used to isolate bacteria from liquid enrichment cultures that grow on 2,6-DMN and to test isolates for growth with various sources of carbon and energy. S12 agar was prepared by adding 1.5% Noble agar (DIFCO) to S12 medium.
Since 2,6-DMN has low aqueous solubility, bacteria growing in S12 medium were supplied with 2,6-DMN by adding a few flakes of the compound directly to the culture. Bacteria growing on S12 agar were supplied with naphthalene, 2-methylnapthalene or 2,6-DMN by placing a few flakes of the compound on the interior of the petri dish lid. All petri dishes were sealed with parafilm and incubated with the lid on the bottom.
Bacteria that grow on 2,6-DMN were isolated from an enrichment culture. The enrichment culture was established by inoculating 0.1 mL of activated sludge into 10 mL of S12 medium in a 125 mL screw cap Erlenmeyer flask. The activated sludge was obtained from a DuPont wastewater treatment facility. The enrichment culture was supplemented with adding yeast extract (0.001% final concentration) by adding a few flakes of 2,6-DMN directly to the culture medium. The enrichment culture was incubated at 28° C. with reciprocal shaking. The culture was diluted every 4 to 7 d by replacing 9 mL of the culture with the same volume of S12 medium with 0.001% yeast extract and a few additional flakes of 2,6-DMN. […]

[1] = tested on: ASU1 xylene monooxygenase; assay: Oxidation of 2,6-DMN by Escherichia coli recombinant with cloned ASU1 xylene monooxygenase genes (Clone 4a); format: cell-based, Sphingomonas strain ASU1; conditions: E. coli Clone 4a; M9 medium; 24 mg 2,6-DMN in FC-75 carrier phase; 37° C.; HPLC and GC/MS; metabolites 6-M-2-HMN, 6-M-2-NA, 2,6-NDC
Procedure: (§1) HPLC system used was a Hewlett Packard 1100 series with a photo diode array detector and LC/MSD-ESI Negative ion. Column used was Hewlett Packard part #880975-902 Zorbax® SB-C18 (4.6×12.5 mm, 5 micron), purchased from Agilient Technologies (Foster City, Calif.). The column temperature was controlled at 30° C. Mobile phase was […] ammonium acetate [20 mL 1 M ammonium acetate in 1800 mL water (solvent-2=S-2)] and acetonitrile (Solvent-1=S-1). The gradient used was 0-3 min 10% S-1 and 90% S-2, gradient was increased to 100% S-1 in 33 min, and again reduced to 10% S-1 and 90% S-2 in 3 min. Flow rate used for the mobile phase was 0.9 mL/min. 100 μL samples were injected, 230 nm wavelength was used for detection of the intermediates of 2,6-dimethylnaphthalene. Intermediates were prepared by as follows, as intermediates needed were not available in the market. Intermediates prepared were 6-methyl-2-napthoic acid, 6-methyl-2-hydroxymethylnaphthalene, and 2,6-Bis(hydroxymethyl)naphthalene. The retention time and diode array scans of the intermediates matched with the prepared standards. The mass spectrometer fragmentation pattern of the 6-methyl-2-napthoic acid in the sample matched that of the standards prepared.
(§2) GC/MS was also used to analyze the samples. […]
(§3) The conversion of 2,6-DMN to 2,6-NDC was monitored by reverse phase HPLC. […]

[2] = Aqueous solubility (statement); format: physicochemical
[3] = target: T1, pWWO xylene monooxygenase (Pseudomonas putida, UniProt P21395); assay: Oxidation of 2,6-DMN by Escherichia coli recombinant with cloned pWWO xylene monooxygenase genes (Clone 6f); format: cell-based; conditions: E. coli Clone 6f; M9 medium; 24 mg 2,6-DMN in FC-75 carrier phase; 37° C.; HPLC and GC/MS; metabolites 6-M-2-HMN, 6-M-2-NA, 2,6-HMN
T1 construct: A fragment of pWWO DNA that contained xylM and xylA was cloned into a small, multicopy plasmid; expressed in transfected cells; host or cells: Escherichia coli TOP10 carrying pCR2.1-TOPO with the 2.4 kb pWWO xylM-xylA PCR fragment from strain ATCC 33015 (Clone 6f)
Procedure: as §1, §2, §3

T1 sequence (P21395 whole entry, the tested form may be a part): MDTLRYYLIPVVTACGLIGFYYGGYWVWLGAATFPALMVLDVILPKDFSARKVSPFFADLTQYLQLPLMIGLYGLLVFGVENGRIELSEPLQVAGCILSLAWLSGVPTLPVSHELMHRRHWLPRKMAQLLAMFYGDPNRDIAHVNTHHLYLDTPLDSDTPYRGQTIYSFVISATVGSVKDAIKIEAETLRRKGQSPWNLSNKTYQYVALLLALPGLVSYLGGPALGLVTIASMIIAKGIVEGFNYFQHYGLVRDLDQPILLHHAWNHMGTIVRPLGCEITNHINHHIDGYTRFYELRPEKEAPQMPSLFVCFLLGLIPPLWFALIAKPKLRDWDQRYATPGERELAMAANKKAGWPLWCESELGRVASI

Q: Which results are given for `Cc1ccc2cc(C)ccc2c1` [2,6-dimethylnaphthalene, 2,6-Dimethylnaphthalene]?
A: Growth on Carbon Source (Sphingomonas strain ASU1): able to grow; Substrate for the ASU1 xylene monooxygenase (oxidation by Clone 4a) [1]: substrate; aqueous solubility [2]: low; Substrate for the pWWO xylene monooxygenase (oxidation by Clone 6f) [3]: substrate
